Results reported in PubChem BioAssay AID248 (DTP/NCI, 2004).
Where “and” joins values, the source holds several entries; their conditions need not be identical. Equal entries are not always repeated. Toxic doses and inconclusive results are not listed. Cut-off read from the data, not from the text of the source: active = T/C of 150% or more; inactive = T/C below 125%. Peptide text beside a SMILES is read from it. * marks the point of attachment. Cbz = O=C(OCc1ccccc1)*

System: L1210 leukemia ip in BDF1 mice, survival T/C
Assay: NCI In Vivo Anticancer Drug Screen. Data for tumor model L1210 Leukemia (intraperitoneal) in B6D2F1 (BDF1) mice
Conditions: endpoint: mean survival time, higher = longer survival
Procedure, shortened: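 In this screen, tumor-bearing mice given compound are compared to those given vehicle, and their survival values are reported as a treated-to-control quotient.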

[1] = dose: 100.0 mg/kg/injection, schedule: Q04DX003 (ip), vehicle: saline
[2] = dose: 200.0 mg/kg/injection, schedule: Q04DX003 (ip), vehicle: saline
[3] = dose: 400.0 mg/kg/injection, schedule: Q04DX003 (ip), vehicle: saline
[4] = dose: 100.0 mg/kg/injection, schedule: Q01DX009 (ip), vehicle: Klucel (hydroxypropylcellulose) (HPC)
[5] = dose: 100.0 mg/kg/injection, schedule: Q04DX003 (ip), vehicle: Klucel (hydroxypropylcellulose) (HPC)
[6] = dose: 200.0 mg/kg/injection, schedule: Q01DX009 (ip), vehicle: Klucel (hydroxypropylcellulose) (HPC)
[7] = dose: 200.0 mg/kg/injection, schedule: Q04DX003 (ip), vehicle: Klucel (hydroxypropylcellulose) (HPC)
[8] = dose: 400.0 mg/kg/injection, schedule: Q01DX009 (ip), vehicle: Klucel (hydroxypropylcellulose) (HPC)
[9] = dose: 400.0 mg/kg/injection, schedule: Q04DX003 (ip), vehicle: Klucel (hydroxypropylcellulose) (HPC)
[10] = dose: 100.0 mg/kg/injection, schedule: Q04DX002 (ip), vehicle: saline
[11] = dose: 200.0 mg/kg/injection, schedule: Q04DX002 (ip), vehicle: saline
[12] = dose: 400.0 mg/kg/injection, schedule: Q04DX002 (ip), vehicle: saline
[13] = dose: 100.0 mg/kg/injection, schedule: Q04DX002 (ip), vehicle: saline with Tween-80
[14] = dose: 200.0 mg/kg/injection, schedule: Q04DX002 (ip), vehicle: saline with Tween-80
[15] = dose: 400.0 mg/kg/injection, schedule: Q04DX002 (ip), vehicle: saline with Tween-80

Measured: T/C

CC(=O)OC1CCC2(C)C(=CC(=O)C3C2CCC2(C)C(C(C)CCCC(C)C)CCC32)C1 (centres undefined)
inactive: dose: 100.0 mg/kg/injection, schedule: Q01DX009 (sc), vehicle: steriod suspending solution 108 % of control | dose: 100.0 mg/kg/injection, schedule: Q04DX003 (sc), vehicle: steriod suspending solution 91 % of control | dose: 200.0 mg/kg/injection, schedule: Q01DX009 (sc), vehicle: steriod suspending solution 110 % of control | dose: 200.0 mg/kg/injection, schedule: Q04DX003 (sc), vehicle: steriod suspending solution 91 % of control | dose: 400.0 mg/kg/injection, schedule: Q01DX009 (sc), vehicle: steriod suspending solution 115 % of control | dose: 400.0 mg/kg/injection, schedule: Q04DX003 (sc), vehicle: steriod suspending solution 102 % of control

C=C(NC(=O)COc1ccccc1)C(=O)O
inactive: dose: 100.0 mg/kg/injection, schedule: Q01DX009 (ip), vehicle: saline 103 % of control | [1] 116 % of control | dose: 200.0 mg/kg/injection, schedule: Q01DX009 (ip), vehicle: saline 90 % of control | [2] 97 % of control | [3] 100 % of control

Nc1cc(N)cc([N+](=O)[O-])c1
inactive: dose: 3.12 mg/kg/injection, schedule: Q01DX009 (ip), vehicle: saline 103 % of control | dose: 6.25 mg/kg/injection, schedule: Q01DX009 (ip), vehicle: saline 103 % of control | dose: 6.25 mg/kg/injection, schedule: Q04DX003 (ip), vehicle: saline 101 % of control | dose: 12.5 mg/kg/injection, schedule: Q01DX009 (ip), vehicle: saline 95 % of control | dose: 12.5 mg/kg/injection, schedule: Q04DX003 (ip), vehicle: saline 101 % of control | dose: 25.0 mg/kg/injection, schedule: Q04DX003 (ip), vehicle: saline 101 % of control | dose: 50.0 mg/kg/injection, schedule: Q01DX001 (ip), vehicle: carboxymethylcellulose (CMC) 113 % of control | dose: 100.0 mg/kg/injection, schedule: Q01DX001 (ip), vehicle: carboxymethylcellulose (CMC) 109 % of control | dose: 200.0 mg/kg/injection, schedule: Q01DX001 (ip), vehicle: carboxymethylcellulose (CMC) 107 % of control | dose: 400.0 mg/kg/injection, schedule: Q01DX001 (ip), vehicle: carboxymethylcellulose (CMC) 109 % of control

c1ccc2cc(-c3csc4ccccc34)ccc2c1
inactive: [4] 104 % of control | [5] 110 % of control | [6] 94 % of control | [7] 97 % of control | [8] 103 % of control | [9] 100 % of control

COP(=O)(O)CC(C)=O (tested in a mixture with another compound)
inactive: [10] 101 % of control | [11] 101 % of control | [12] 101 % of control

Clc1ccc2c(c1)C([P+](c1ccccc1)(c1ccccc1)c1ccccc1)c1cc(Cl)cc(Cl)c1-2 (centres undefined)
inactive: dose: 100.0 mg/kg/injection, schedule: Q01DX001 (ip), vehicle: Klucel (hydroxypropylcellulose) (HPC) 95 % of control | [5] 102 % of control | dose: 200.0 mg/kg/injection, schedule: Q01DX001 (ip), vehicle: Klucel (hydroxypropylcellulose) (HPC) 93 % of control | [7] 96 % of control | dose: 400.0 mg/kg/injection, schedule: Q01DX001 (ip), vehicle: Klucel (hydroxypropylcellulose) (HPC) 95 % of control | [9] 104 % of control

COc1ccc(OC(=O)Nc2ccc(OC)cc2OC)cc1
inactive: [4] 97 % of control | [6] 104 % of control | [8] 96 % of control

COC(=O)CNC(=O)C(CC(C)C)NC(=O)C(CC(C)C)NC(=O)C(C)NC(=O)OCc1ccccc1 (centres undefined) (Cbz-ALLG-OMe; configuration not given here)
inactive: [1] 94 % of control | [2] 98 % of control | [3] 98 % of control

[O-][n+]1ccc(CC(O)(C(F)(F)F)C(F)(F)F)cc1
inactive: dose: 25.0 mg/kg/injection, schedule: Q01DX009 (ip), vehicle: Klucel (hydroxypropylcellulose) (HPC) 93 % of control | dose: 50.0 mg/kg/injection, schedule: Q01DX009 (ip), vehicle: Klucel (hydroxypropylcellulose) (HPC) 92 % of control | [4] 97 % of control and 104 % of control | [5] 103 % of control | [7] 102 % of control | [9] 96 % of control

CCO/N=C1\C(C)(C)C(C)(C)C(C)(C)C1(C)SS(=O)(=O)O (centres undefined)
inactive: dose: 75.0 mg/kg/injection, schedule: Q04DX002 (ip), vehicle: saline 101 % of control | dose: 150.0 mg/kg/injection, schedule: Q04DX002 (ip), vehicle: saline 96 % of control | dose: 300.0 mg/kg/injection, schedule: Q04DX002 (ip), vehicle: saline 93 % of control

O=Cc1ccsc1
inactive: [13] 90 % of control | [14] 97 % of control | [15] 101 % of control

CC(C)(C)C(=O)OCn1cnc(=N)c2[nH]cnc21
inactive: [5] 100 % of control | [7] 108 % of control

N#CNS(=O)(=O)c1ccccc1
inactive: dose: 100.0 mg/kg/injection, schedule: Q01DX001 (ip), vehicle: saline 98 % of control | dose: 200.0 mg/kg/injection, schedule: Q01DX001 (ip), vehicle: saline 92 % of control | dose: 400.0 mg/kg/injection, schedule: Q01DX001 (ip), vehicle: saline 98 % of control

CCOC(=S)SC/C=C/CSC(=S)OCC
inactive: [13] 97 % of control | [14] 103 % of control | [15] 107 % of control

O=C(Nc1ccc(C(=O)O)cc1)Nc1ccccc1C(F)(F)F
inactive: dose: 100.0 mg/kg/injection, schedule: Q01DX009 (ip), vehicle: gum acacia 100 % of control | dose: 200.0 mg/kg/injection, schedule: Q01DX009 (ip), vehicle: gum acacia 102 % of control | dose: 400.0 mg/kg/injection, schedule: Q01DX009 (ip), vehicle: gum acacia 96 % of control

O=C1c2ccccc2CCCC12OC2c1ccccc1 (centres undefined)
inactive: dose: 75.0 mg/kg/injection, schedule: Q04DX003 (ip), vehicle: Klucel (hydroxypropylcellulose) (HPC) 92 % of control | dose: 150.0 mg/kg/injection, schedule: Q04DX003 (ip), vehicle: Klucel (hydroxypropylcellulose) (HPC) 93 % of control | dose: 300.0 mg/kg/injection, schedule: Q04DX003 (ip), vehicle: Klucel (hydroxypropylcellulose) (HPC) 95 % of control

COc1cccc(OC)c1OC(=O)Nc1cccc(SC)c1
inactive: dose: 200.0 mg/kg/injection, schedule: Q01DX009 (ip), vehicle: saline with Tween-80 91 % of control | dose: 400.0 mg/kg/injection, schedule: Q01DX009 (ip), vehicle: saline with Tween-80 95 % of control

CC(=O)CC(=O)C(F)(F)F.CC(=O)CC(=O)C(F)(F)F.CC(=O)CC(=O)C(F)(F)F.CC(=O)CC(=O)C(F)(F)F.[Hf]
inactive: dose: 100.0 mg/kg/injection, schedule: Q04DX002 (ip), vehicle: Klucel (hydroxypropylcellulose) (HPC) 104 % of control | dose: 200.0 mg/kg/injection, schedule: Q04DX002 (ip), vehicle: Klucel (hydroxypropylcellulose) (HPC) 93 % of control | dose: 400.0 mg/kg/injection, schedule: Q04DX002 (ip), vehicle: Klucel (hydroxypropylcellulose) (HPC) 96 % of control

O=C(O)CCc1ccncc1
inactive: [10] 100 % of control | [11] 122 % of control | [12] 103 % of control

O=C1CCCC/C1=C\c1cccc2ccccc12
inactive: [13] 103 % of control | [14] 96 % of control | [15] 88 % of control
